Experimental data taken from patent publication US20200017496A1 (priority 2017, published 2020).
Read-outs that look alike come from different tables or passages of the source.

Columns and labels:
Assay type in all cases: cell-based
[1] = test system: Proteus mirabilis (PMI) isolates; assay: microbe, parasite or virus in culture; conditions: for MIC ATB in combination: AF1 @ 4 μg/mL; for MIC: Proteus mirabilis, ATB alone, read-out: MIC
How it was run: (§1)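 First, log-phase suspensions are brought to a final 5·10^5 CFU/mL in cation-adjusted Mueller-Hinton broth. Then plates with compound, antibacterial, or both incubate 16-20 h at 35° C under ambient air. Finally, visual inspection gives the lowest growth-preventing concentration for each agent.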

[2] = test system: Citrobacter freundii (CFR) isolates; assay: MIC of compounds alone and combined with antibacterials, broth microdilution (CLSI); conditions: for MIC: Citrobacter freundii
How it was run: as §1

[3] = test system: Enterobacter aerogenes (EAE) isolates; assay: as above; conditions: for MIC ATB in combination: AF1 @ 4 μg/mL; for MIC: Klebsiella aerogenes
How it was run: as §1

[4] = test system: Klebsiella pneumoniae (KPN) isolates; assay: as above; conditions: for MIC ATB in combination: AF1 @ 4 μg/mL; for MIC: Klebsiella pneumoniae
How it was run: as §1

[5] = test system: Morganella morganii (MMO) isolates; assay: as above; conditions: for MIC ATB in combination: AF1 @ 4 μg/mL; for MIC: Morganella morganii, ATB alone
How it was run: as §1

[6] = test system: Providencia stuartii (PST) isolates; assay: as above; conditions: for MIC ATB in combination: AF1 @ 4 μg/mL; for MIC: Providencia stuartii, ATB alone, read-out: MIC
How it was run: as §1

CO/N=C(\C(=O)N[C@@H]1C(=O)N2C(C(=O)O)=C(COC(N)=O)CS[C@H]12)c1ccco1 [FUR, Cefuroxime]
4 µg/mL: MIC ATB in combination ([1]; PMI UFR82) | MIC ATB in combination ([1]; PMI UFR129) | MIC ATB in combination ([1]; PMI UFR130) | MIC ATB in combination ([1]; PMI UFR237) | MIC ATB in combination ([2]; strain CFR UFR253, antibacterial combined with AF1 @ 4 μg/mL) | MIC ATB in combination ([4]; KPN 110376) | MIC ATB in combination ([4]; KPN 160143) | MIC ATB in combination ([4]; KPN 190425) | MIC ATB in combination ([4]; KPN 190551) | MIC ATB in combination ([4]; KPN BAA-1898) | MIC ATB in combination ([4]; KPN UFR23) | MIC ATB in combination ([4]; KPN UFR25) | MIC ATB in combination ([4]; KPN UFR28) | MIC ATB in combination ([4]; KPN UFR216) | MIC ATB in combination ([4]; KPN UFR221)
> 512 µg/mL: MIC ([4]; BAA1898, strain KPN BAA-1898 (TEM-1, SHV-11, SHV-12, KPC-2), ATB alone, read-out: MIC) | MIC ([4]; strain KPN 6299 (TEM-1, SHV-11, OXA-163), ATB alone, read-out: MIC)
64 µg/mL: MIC ATB in combination ([3]; EAE 49469) | MIC ATB in combination ([3]; EAE 200261) | MIC ATB in combination ([4]; KPN UFR222) | MIC ATB in combination ([4]; KPN UFR227O) | MIC ([4]; strain KPN UFR77 (CMY-2), ATB alone, read-out: MIC) | MIC ATB in combination ([5]; MMO UFR246) | MIC ([5]; strain MMO UFR244 (DHA-1), read-out: MIC)
128 µg/mL: MIC ([4]; strain KPN UFR24 (TEM-1, SHV-2, SHV-11, OXA-1, OXA-48, OXA-47), ATB alone, read-out: MIC) | MIC ATB in combination ([5]; MMO 200321) | MIC ([5]; strain MMO UFR243 (DHA-1), read-out: MIC) | MIC ([5]; strain MMO UFR245 (DHA-1), read-out: MIC) | MIC ([5]; strain MMO UFR246 (DHA-1), read-out: MIC) | MIC ([6]; strain PST UFR95 (TEM-24))
16 µg/mL: MIC ([1]; strain PMI UFR82 (CMY-2)) | MIC ATB in combination ([2]; CFR UFR146, AF1 @ 4 μg/mL) | MIC ATB in combination ([4]; KPN 6299) | MIC ATB in combination ([4]; KPN 190128) | MIC ATB in combination ([4]; KPN 190270) | MIC ATB in combination ([4]; KPN 270077) | MIC ATB in combination ([4]; KPN 700603) | MIC ATB in combination ([4]; KPN ARA) | MIC ATB in combination ([4]; KPN UFR24) | MIC ATB in combination ([4]; KPN UFR65) | MIC ATB in combination ([4]; KPN UFR80) | MIC ATB in combination ([4]; KPN UFR215) | MIC ATB in combination ([4]; KPN UFR220) | MIC ([4]; strain KPN LIB (SHV-11, OXA-48), ATB alone, read-out: MIC) | MIC ATB in combination ([5]; MMO UFR240) | MIC ATB in combination ([5]; MMO UFR244) | MIC ATB in combination ([5]; MMO UFR247)
2 µg/mL: MIC ATB in combination ([1]; PMI UFR121) | MIC ATB in combination ([2]; strain CFR UFR254, antibacterial combined with AF1 @ 4 μg/mL) | MIC ATB in combination ([3]; EAE UFR201) | MIC ATB in combination ([4]; KPN 200047) | MIC ATB in combination ([4]; KPN 200327) | MIC ATB in combination ([4]; KPN 260376) | MIC ATB in combination ([4]; KPN UFR217)
256 µg/mL: MIC ([6]; strain PST UFR235 (VEB-1))
8 µg/mL: MIC ([1]; strain PMI UFR130 (CMY-2)) | MIC ATB in combination ([2]; CFR UFR10, AF1 @ 4 μg/mL) | MIC ATB in combination ([2]; CFR UFR248, AF1 @ 4 μg/mL) | MIC ATB in combination ([2]; CFR UFR249, AF1 @ 4 μg/mL) | MIC ATB in combination ([2]; CFR UFR250, AF1 @ 4 μg/mL) | MIC ATB in combination ([3]; EAE UFR199) | MIC ATB in combination ([3]; EAE UFR213) | MIC ATB in combination ([4]; KPN 131119) | MIC ATB in combination ([4]; KPN 260251) | MIC ATB in combination ([4]; KPN LIB) | MIC ATB in combination ([4]; KPN UFR22_O) | MIC ATB in combination ([4]; KPN UFR68) | MIC ATB in combination ([4]; KPN UFR219) | MIC ([4]; strain KPN UFR23 (TEM-1, SHV-1, OXA-48), ATB alone, read-out: MIC) | MIC ATB in combination ([6]; PST UFR94) | MIC ATB in combination ([6]; PST UFR235)
32 µg/mL: MIC ([2]; ATB alone, strain CFR UFR253 (TEM-1, SHV-12, OXA-48), read-out: MIC) | MIC ([2]; ATB alone, strain CFR UFR254 (VEB-1b, OXA-48, qnrA), read-out: MIC) | MIC ATB in combination ([3]; EAE UFR202) | MIC ATB in combination ([4]; KPN 140513) | MIC ATB in combination ([4]; KPN 260252) | MIC ATB in combination ([4]; KPN UFR27) | MIC ATB in combination ([4]; KPN UFR66) | MIC ATB in combination ([4]; KPN UFR67) | MIC ATB in combination ([4]; KPN UFR77) | MIC ATB in combination ([4]; KPN UFR79) | MIC ATB in combination ([4]; KPN UFR81) | MIC ([4]; strain KPN 700603 (SHV-18, OXA-2), ATB alone, read-out: MIC) | MIC ([4]; strain KPN UFR22_O (TEM-1, SHV-1, OXA-48), ATB alone, read-out: MIC) | MIC ([4]; strain KPN UFR80 (SHV-11, DHA-1, OXA-1), ATB alone, read-out: MIC) | MIC ATB in combination ([5]; MMO UFR144) | MIC ATB in combination ([5]; MMO UFR241) | MIC ATB in combination ([5]; MMO UFR242) | MIC ATB in combination ([5]; MMO UFR243) | MIC ATB in combination ([5]; MMO UFR245) | MIC ATB in combination ([6]; PST UFR95)
>128 µg/mL: MIC ATB in combination ([2]; CFR UFR11, AF1 @ 4 μg/mL) | MIC ATB in combination ([2]; CFR UFR83, AF1 @ 4 μg/mL) | MIC ATB in combination ([4]; KPN UFR76) | MIC ATB in combination ([4]; KPN UFR78)
> 128 µg/mL: MIC ([3]; strain EAE 49469 (AmpC), ATB alone, read-out: MIC)
> 256 µg/mL: MIC ([1]; strain PMI UFR120 (TEM-1, SHV-11, CTX-M-14)) | MIC ([1]; strain PMI UFR121 (TEM-1, TEM-52)) | MIC ([1]; strain PMI UFR122 (TEM-1, CTX-M-15)) | MIC ([1]; strain PMI UFR123 (CTX-M-1)) | MIC ([1]; strain PMI UFR124 (CTX-M-2)) | MIC ([1]; strain PMI UFR125 (CTX-M-71)) | MIC ([1]; strain PMI UFR126 (TEM-2, PER-1)) | MIC ([1]; strain PMI UFR127 (VEB-1)) | MIC ([1]; strain PMI UFR129 (TEM-1, VEB-6)) | MIC ([1]; strain PMI UFR237 (VEB-6)) | MIC [2] | MIC ([2]; strain CFR UFR10 (OXA-48), ATB alone, read-out: MIC) | MIC ([2]; strain CFR UFR11 (TEM-1, OXA-1, OXA-48), ATB alone, read-out: MIC) | MIC ([2]; strain CFR UFR83 (TEM-3, AmpC), ATB alone, read-out: MIC) | MIC ([2]; strain CFR UFR248 (CTX-M-15), ATB alone, read-out: MIC) | MIC ([2]; strain CFR UFR249 (TEM-1, CTX-M-15), ATB alone, read-out: MIC) | MIC ([2]; strain CFR UFR250 (TEM-1, SHV-28, CTX-M-15), ATB alone, read-out: MIC) | MIC [3] | MIC ([3]; strain EAE 200261 (TEM-x, AmpC), ATB alone, read-out: MIC) | MIC ([3]; strain EAE UFR201 (TEM-1, SHV-12, CTX-M-15), ATB alone, read-out: MIC) | MIC ([3]; strain EAE UFR202 (TEM-24), ATB alone, read-out: MIC) | MIC ([3]; strain EAE UFR213 (TEM-24), ATB alone, read-out: MIC) | MIC [4] | MIC ([5]; strain MMO 200321 (TEM-1, CTX-M-15, OXA-1)) | MIC ([5]; strain MMO UFR144 (TEM-1, CTX-M-15)) | MIC ([5]; strain MMO UFR240 (CTX-M-9)) | MIC ([5]; strain MMO UFR241 (TEM-1, CTX-M-15)) | MIC ([5]; strain MMO UFR242 (TEM-52)) | MIC ([5]; strain MMO UFR247 (DHA-1), read-out: MIC) | MIC ([6]; strain PST UFR94 (CTX-M-14))
1 µg/mL: MIC ATB in combination ([1]; PMI UFR120) | MIC ATB in combination ([1]; PMI UFR122) | MIC ATB in combination ([1]; PMI UFR123) | MIC ATB in combination ([1]; PMI UFR124) | MIC ATB in combination ([1]; PMI UFR125) | MIC ATB in combination ([1]; PMI UFR126) | MIC ATB in combination ([1]; PMI UFR127)
